Molecules are shown by their SMILES.

For the first assay, the target named is human APJ receptor (Homo sapiens (Human), UniProt P35414). Briefly: Intracellular cAMP accumulation assay (APJ hcAMP, HTRF). Format: cell-based. The conditions noted are these: HEK293 cells stably expressing human APJ receptor; inhibition of forskolin-mediated cAMP production; read-out: Human APJ cAMP EC50 Potency range. A digest of the protocol: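 HEK293 cells stably expressing human APJ, 5,000 per well, incubated 30 min at rt with compound, […] and 2 μM forskolin. cAMP measured by HTRF against a cAMP standard curve as inhibition of forskolin-driven production. EC50 from variable-slope sigmoidal fit.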
Sequence of human APJ receptor (P35414 whole entry): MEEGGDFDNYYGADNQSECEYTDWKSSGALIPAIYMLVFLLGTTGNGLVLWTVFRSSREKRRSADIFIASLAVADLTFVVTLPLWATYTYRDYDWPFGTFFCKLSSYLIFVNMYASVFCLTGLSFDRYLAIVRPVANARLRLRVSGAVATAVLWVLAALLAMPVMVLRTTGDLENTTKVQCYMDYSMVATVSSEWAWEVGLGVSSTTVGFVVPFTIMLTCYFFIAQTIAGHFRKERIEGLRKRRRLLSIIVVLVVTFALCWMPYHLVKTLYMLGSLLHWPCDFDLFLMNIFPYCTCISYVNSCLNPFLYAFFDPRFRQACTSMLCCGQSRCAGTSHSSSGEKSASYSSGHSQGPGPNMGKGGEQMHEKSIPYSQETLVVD
In general terms: Cyclic AMP is a second messenger, typically raised through Gs and lowered through Gi signalling.
In the case of `N#Cc1cccc([C@H](C2CC2)n2c(CC3CC3)nc(=O)c(S(=O)(=O)c3ccc(-c4ccc(F)cc4C(N)=O)cc3)c2O)c1` [Example 500, 4′-({1-[(S)-(3-cyanophenyl)(cyclopropyl)methyl]-2-(cyclopropylmethyl)-6-hydroxy-4-oxo-1,4-dihydropyrimidin-5-yl}sulfonyl)-4-fluoro-[1,1′-biphenyl]-2-carboxamide], the EC50 is 0.01 to 10 nM. On the same count and under the same terms, the result for `COC[C@@H](c1cccc(C#N)c1)n1c(COC(C)C)nc(=O)c(S(=O)(=O)c2ccc(-c3c[nH]nc3C)cc2)c1O` [Example 394, 3-[(1R)-1-{6-hydroxy-5-[4-(3-methyl-1H-pyrazol-4-yl)benzenesulfonyl]-4-oxo-2-[(propan-2-yloxy)methyl]-1,4-dihydropyrimidin-1-yl}-2-methoxyethyl]benzonitrile] reads 0.01 to 10 nM. For the compound `CCCCc1nc(=O)c(S(=O)(=O)c2ccc(-c3ccnc(F)c3C)cc2)c(O)n1C(c1cccc(C#N)c1)C1CC1` (stereo not drawn) [Example 459, 3-({2-butyl-5-[4-(2-fluoro-3-methylpyridin-4-yl)benzenesulfonyl]-6-hydroxy-4-oxo-1,4-dihydropyrimidin-1-yl}(cyclopropyl)methyl) benzonitrile], the EC50 was 0.01 to 10 nM. The same measure, in the same setting: next, `CC[C@@H](c1ccccc1)n1c(C2CCCC2)nc(=O)c(S(=O)(=O)c2ccc(Br)cc2)c1O` [Example 279, (S)-5-((4-Bromophenyl)sulfonyl)-2-cyclopentyl-6-hydroxy-1-(1-phenylpropyl)pyrimidin-4(1H)-one]: 10 to 100 nM. Take `CC[C@@H](c1cc(F)cc(C#N)c1)n1c(CC2CC2)nc(=O)c(S(=O)(=O)c2ccc(-c3ccccc3C(N)=O)cc2)c1O` [Example 502, 4′-({1-[(1S)-1-(3-cyano-5-fluorophenyl)propyl]-2-(cyclopropylmethyl)-6-hydroxy-4-oxo-1,4-dihydropyrimidin-5-yl}sulfonyl)-[1,1′-biphenyl]-2-carboxamide]: the EC50 fell in the range of 0.01 to 10 nM.

For the compound `CC[C@@H](c1cccc(C#N)c1)n1c(CC2CC2)nc(=O)c(S(=O)(=O)c2ccc(-c3ccncc3C(N)=O)cc2)c1O` [Example 470, 4-[4-({1-[(1S)-1-(3-cyanophenyl)propyl]-2-(cyclopropylmethyl)-6-hydroxy-4-oxo-1,4-dihydropyrimidin-5-yl}sulfonyl)phenyl] pyridine-3-carboxamide], the EC50 lay within 0.01 to 10 nM.

With `CCCCc1nc(=O)c(S(=O)(=O)c2ccc(-c3cccnc3C)cc2)c(O)n1[C@H]1CCc2c(C#N)cccc21` [Example 539, (1S)-1-{2-butyl-6-hydroxy-5-[4-(2-methylpyridin-3-yl)benzenesulfonyl]-4-oxo-1,4-dihydropyrimidin-1-yl}-2,3-dihydro-1H-indene-4-carbonitrile], the EC50 was in the range of 0.01 to 10 nM.

For the compound `CC[C@@H](c1ccccc1)n1c(COC(C)C)nc(=O)c(S(=O)(=O)c2ccc(-c3ccccc3C(=O)NC)cc2)c1O` [Example 422, 4′-({6-hydroxy-4-oxo-1-[(1S)-1-phenylpropyl]-2-[(propan-2-yloxy)methyl]-1,4-dihydropyrimidin-5-yl}sulfonyl)-N-methy1-[1,1′-biphenyl]-2-carboxamide], the EC50 was 0.01 to 10 nM.

As to `CCCCc1nc(=O)c(S(=O)(=O)c2ccc(-c3cc(F)ncc3C)cc2)c(O)n1[C@@H](CC)c1cccc(C#N)c1` [Example 536, 3-[(1S)-1-{2-butyl-5-[4-(2-fluoro-5-methylpyridin-4-yl)benzenesulfonyl]-6-hydroxy-4-oxo-1,4-dihydropyrimidin-1-yl}propyl]benzonitriIe], the EC50 was in the range of 0.01 to 10 nM. In the case of `CCCCc1nc(=O)c(S(=O)(=O)c2ccc(-c3ccncc3C)cc2)c(O)n1[C@H](c1cccc(C#N)c1)C(C)C` [Example 447, 3-[(1S)-1-{2-butyl-6-hydroxy-5-[4-(3-methylpyridin-4-yl)benzenesulfonyl]-4-oxo-1,4-dihydropyrimidin-1-yl}-2-methylpropyl]benzonitrile], the EC50 lay in the range of 0.01 to 10 nM.

With `CCCCc1nc(=O)c(S(=O)(=O)c2ccc(Br)cn2)c(O)n1-c1c(OC)cccc1OC` [Example 98, 5-((5-Bromopyridin-2-yl)sulfonyl)-2-butyl-1-(2,6-dimethoxyphenyl)-6-hydroxypyrimidin-4(1H)-one], the EC50 fell in the range of 0.01 to 10 nM. On to `CCCCc1nc(=O)c(S(=O)(=O)c2ccc(-c3ccnc4[nH]ccc34)cc2)c(O)n1[C@@H](CC)c1cccc(C#N)c1` [Example 510, 3-[(1S)-1-[2-buty1-6-hydroxy-4-oxo-5-(4-{1H-pyrrolo[2,3-b]pyridin-4-yl}benzenesulfonyl)-1,4-dihydropyrimidin-1-yl]propyl]benzonitrile], for which the EC50 was 0.01 to 10 nM. Regarding `COC[C@@H](c1cccc(C#N)c1)n1c(COC(C)C)nc(=O)c(S(=O)(=O)c2ccc(Br)cc2)c1O` [Example 371, 3-[(1R)-1-[5-(4-bromobenzenesulfonyl)-6-hydroxy-4-oxo-2-[(propan-2-yloxy)methyl]-1,4-dihydropyrimidin-1-yl]-2-methoxyethyl]benzonitrile], the EC50 lay in the range of 0.01 to 10 nM. As to `CCCCc1nc(=O)c(S(=O)(=O)c2ccc(-c3ccccc3C(=O)NC)cc2)c(O)n1[C@@H](CC)c1cccc(C#N)n1` [Example 551, 4′-({2-butyl-1-[(1S)-1-(6-cyanopyridin-2-yl)propyl]-6-hydroxy-4-oxo-1,4-dihydropyrimidin-5-yl}sulfonyl)-N-methyl-[1,1′-biphenyl]-2-carboxamide], the EC50 fell in the range of 0.01 to 10 nM. Same read-out and setting: the result for `CC[C@@H](c1cccc(C#N)c1)n1c(CC2CC2)nc(=O)c(S(=O)(=O)c2ccc(-c3cccnc3C(N)=O)cc2)c1O` [Example 486, 3-[4-({1-[(1S)-1-(3-cyanophenyl)propyl]-2-(cyclopropylmethyl)-6-hydroxy-4-oxo-1,4-dihydropyrimidin-5-yl}sulfonyl)phenyl] pyridine-2-carboxamide] reads 0.01 to 10 nM. Regarding `CCCCc1nc(=O)c(S(=O)(=O)c2ccc(-c3cccc(C(=O)NC)c3)cc2)c(O)n1[C@@H]1CCc2ccc(C#N)cc21` [Example 543, 4′-({2-butyl-1-[(1R)-6-cyano-2,3-dihydro-1H-inden-1-yl]-6-hydroxy-4-oxo-1,4-dihydropyrimidin-5-yl}sulfonyl)-N-methyl-[1,1′-biphenyl]-3-carboxamide], the EC50 fell in the range of 10 to 100 nM.

Staying with this assay, now noted: human APJ, cAMP accumulation; read-out: Human APJ cAMP EC50 Potency range.
As to `CC[C@@H](c1ccccc1)n1c(C2CCCC2)nc(=O)c(S(=O)(=O)c2ccc(-c3cncc(C)c3)cc2)c1O` [Example 281, 2-cyclopentyl-6-hydroxy-5-[4-(5-methylpyridin-3-yl)benzenesulfonyl]-1-[(1S)-1-phenylpropyl]-1,4-dihydropyrimidin-4-one], the concentration giving a half-maximal response (EC50) was in the range of 0.01 to 10 nM. With `CC(C)OCc1nc(=O)c(S(=O)(=O)c2ccc(Br)cc2)c(O)n1[C@H]1CCc2ccccc21` [Example 299, 5-(4-bromobenzenesulfonyl)-1-[(1S)-2,3-dihydro-1H-inden-1-yl]-6-hydroxy-2-[(propan-2-yloxy)methyl]-1,4-dihydropyrimidin-4-one], the EC50 was 10 to 100 nM. Same read-out and setting: next, `CCOCc1nc(=O)c(S(=O)(=O)c2ccc(-c3ccnc(F)c3C)cc2)c(O)n1[C@H]1CCc2ccccc21` [Example 324, 1-[(1S)-2,3-dihydro-1H-inden-1-yl]-2-(ethoxymethyl)-5-[4-(2-fluoro-3-methylpyridin-4-yl)benzenesulfonyl]-6-hydroxy-1,4-dihydropyrimidin-4-one]: 0.01 to 10 nM; `CCCCCc1nc(=O)c(S(=O)(=O)c2ccc(-c3cccnc3C)cc2)c(O)n1[C@@H](COC)c1ccccc1` [Example 249, 6-hydroxy-1-[(1R)-2-methoxy-1-phenylethyl]-5-[4-(2-methylpyridin-3-yl)benzenesulfonyl]-2-pentyl-1,4-dihydropyrimidin-4-one]: 0.01 to 10 nM.

Still in this assay, the particulars now being: human APJ, intracellular cAMP accumulation; read-out: Human APJ cAMP EC50 Potency range.
For `CCCCc1nc(=O)c(S(=O)(=O)c2ccc(-c3ccc(C(=O)NC4CC4)cc3)cc2)c(O)n1-c1c(OC)cccc1OC` [Example 39, 4-(4-{[2-butyl-1-(2,6-dimethoxyphenyl)-6-hydroxy-4-oxo-1,4-dihydropyrimidin-5-yl]sulfonyl}phenyl)-N-cyclopropylbenzamide], the EC50 fell in the range of 0.01 to 10 nM. As for `COc1cccc(OC)c1-n1c(CCC(C)C)nc(=O)c(S(=O)(=O)c2ccc(-c3ccccc3)cc2)c1O` [Example 11, 1-(2,6-dimethoxyphenyl)-6-hydroxy-2-(3-methylbutyl)-5-(4-phenylbenzenesulfonyl)-1,4-dihydropyrimidin-4-one], the EC50 is 0.01 to 10 nM.

Take `COc1cccc(OC)c1-n1c(CCC(C)C)nc(=O)c(S(=O)(=O)c2ccccc2-c2ccccc2)c1O` [Example 22, 1-(2,6-dimethoxyphenyl)-6-hydroxy-2-(3-methylbutyl)-5-(2-phenylbenzenesulfonyl)-1,4-dihydropyrimidin-4-one]: the EC50 was in the range of 10 to 100 nM. Turning to `COc1cccc(OC)c1-n1c(CCC(C)C)nc(=O)c(S(=O)(=O)c2ccc(-c3ccc(Cl)cc3)cc2)c1O` [Example 14, 5-[4-(4-chlorophenyl)benzene-sulfonyl]-1-(2,6-dimethoxyphenyl)-6-hydroxy-2-(3-methylbutyl)-1,4-dihydropyrimidin-4-one], the EC50 was in the range of 0.01 to 10 nM. Consider `CCCCc1nc(=O)c(S(=O)(=O)Cc2ccccc2)c(O)n1-c1c(OC)cccc1OC` [Example 5, 2-butyl-1-(2,6-dimethoxyphenyl)-6-hydroxy-5-phenylmethanesulfonyl-1,4-dihydropyrimidin-4-one], for which the EC50 was in the range of 10 to 100 nM. On the same count and under the same terms, next, `COc1cccc(OC)c1-n1c(CCC(C)C)nc(=O)c(S(=O)(=O)c2ccccc2-c2ccc(F)nc2)c1O` [Example 24, 1-(2,6-dimethoxyphenyl)-5-[2-(6-fluoropyridin-3-yl)benzenesulfonyl]-6-hydroxy-2-(3-methylbutyl)-1,4-dihydropyrimidin-4-one]: 10 to 100 nM; `CCCCc1nc(=O)c(S(=O)(=O)c2ccc(-c3cccnc3OC)cc2)c(O)n1-c1c(OC)cccc1OC` [Example 30, 2-butyl-1-(2,6-dimethoxyphenyl)-6-hydroxy-5-[4-(2-methoxypyridin-3-yl)benzenesulfonyl]-1,4-dihydropyrimidin-4-one]: 0.01 to 10 nM.

One may read the EC50 as the concentration needed to bring the measured effect to its halfway point.

The record behind these values is patent publication US10508104B2, “6-hydroxy-5-(phenyl/heteroarylsulfonyl)pyrimidin-4(1H)-one as APJ agonists” (Bristol-Myers Squibb Company, priority 2016, dated 2019).
